Each structure is given as a SMILES string. Read-outs that look alike come from different tables or passages of the source.

Our source for the AC50 and IC50 values is patent publication US20250092065A1, “2-(INDAZOL-5-YL)-6-(PIPERIDIN-4-YL)-1,7-NAPHTHYRIDINE DERIVATIVES AND RELATED COMPOUNDS AS MODULATORS FOR SPLICING NUCLEIC ACIDS AND FOR THE TREATMENT OF PROLIFERATIVE DISEASES” (REMIX THERAPEUTICS INC., priority 2022, published 2025).

Holding throughout (assay type): cell-based, human
For one assay, the system named is MYB mRNA. The experiment in a line: RT-qPCR splicing assay, MYB mRNA canonical (CJ) and alternative (AJ) junction. Conditions: Homo sapiens; for AC50: MYB alternative junction mRNA, read-out: MYB AJ (increase in AJ mRNA, AC50). In outline: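 Splice switching quantified in compound-treated A673/K562 cells after 24 h exposure (top dose 10 uM, 3-fold steps, ≤0.25% DMSO), using CJ and AJ qPCR assays run at least in duplicate. RQ derived by 2^(−ΔΔCt), then percentage response.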

Another assay relates to HTT. The assay can be described thus: HiBiT protein abundance assay, HTT (K562 HiBiT knock-in). Conditions: HiBiT knock-in K562 cells, 24 hours, top dose 10 μM. In outline:
(§1)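 K562 HiBiT knock-in, 24 h, 37 °C, top 10 μM final, 3-fold ×10, DMSO ≤0.25%. Lytic HiBiT luminescence; PC = parental K562, NC = DMSO; 4PL IC50.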

A further assay deals with Target C. The assay can be described thus: HiBiT protein abundance assay, Target C (K562 HiBiT knock-in). The settings on record: HiBiT knock-in K562 cells, 24 hours, top dose 10 μM. In outline:
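K562 HiBiT knock-in cells (10000/well) were treated 24 h at 37° C with a 10-point 3-fold dilution series (top 10 μM final, ≤0.25% DMSO). HiBiT luminescence was read after lytic LgBiT detection. Percent response used unmodified K562 and DMSO-treated knock-in controls, and IC50 came from a four-parameter fit at 50% of untreated.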

The test system of a further assay is MYB. The assay can be described thus: HiBiT protein abundance assay, MYB (K562 HiBiT knock-in). Conditions: HiBiT knock-in K562 cells, 24 hours, top dose 10 μM. A digest of the protocol: as §1
Where [1] appears, read: MYB canonical junction mRNA, RT-qPCR, read-out: MYB CJ (decrease in CJ mRNA levels, IC50).
Setting [2] is: canonical junction qPCR panel, Table 4, read-out: MYB IC50 (decrease in CJ mRNA levels).

As to `Cc1c(O)c(-c2ncc3cc(N4C[C@H](C)N[C@@H](C)C4)ccc3n2)cc2cn(C)nc12` [Compound 660, 5-{6-[(3S,5S)-3,5-dimethylpiperazin-1-yl]quinazolin-2-yl}-2,7-dimethylindazol-6-ol], the AC50 with MYB mRNA (RT-qPCR) is less than 100 nM. Further, the IC50 with MYB mRNA (setting [1]) was less than 100 nM; with MYB mRNA (setting [2]), less than 100 nM; with HTT, 100 to 1000 nM; in the assay on Target C it was 100 to 1000 nM; with MYB, less than 100 nM.
Consider `CNC(=O)c1nc(-c2cc3cn(C)nc3c(C)c2O)nc2ccc(N3CCC(N4CCC4)CC3)cc12` [Compound 706], for which, in the assay with MYB mRNA (RT-qPCR), the half-maximal activity concentration (AC50) is less than 100 nM. The concentration for half-maximal inhibition (IC50) is less than 100 nM with MYB mRNA (setting [1]); less than 100 nM in the assay on MYB mRNA (setting [2]); 100 to 1000 nM in the assay with HTT; 100 to 1000 nM with Target C; less than 100 nM in the assay on MYB.
For `C[C@@H]1CN(c2ccc3nc(-c4cc5cn(C)nc5c(F)c4O)nc(C#N)c3c2)C[C@H](C)N1` [Compound 707, 6-[(3R,5S)-3,5-dimethylpiperazin-1-yl]-2-(7-fluoro-6-hydroxy-2-methylindazol-5-yl) quinazoline-4-carbonitrile], the AC50 in the assay on MYB mRNA (RT-qPCR) was less than 100 nM. Moreover, the IC50 in the assay with MYB mRNA (setting [1]) is less than 100 nM; in the assay on MYB mRNA (setting [2]), less than 100 nM; with HTT, 100 to 1000 nM; in the assay with Target C, 100 to 1000 nM; in the assay on MYB, less than 100 nM.
For the compound `C[C@@H]1CN(c2ccc3nc(-c4cc5cn(C)nc5c(F)c4O)nc(C(N)=O)c3c2)C[C@H](C)N1` [Compound 712, 6-[(3R,5S)-3,5-dimethylpiperazin-1-yl]-2-(7-fluoro-6-hydroxy-2-methylindazol-5-yl) quinazoline-4-carboxamide], the concentration at half-maximal activity (AC50) with MYB mRNA (RT-qPCR) is less than 100 nM. For the same compound, the IC50 is less than 100 nM with MYB mRNA (setting [1]); less than 100 nM in the assay with MYB mRNA (setting [2]); 100 to 1000 nM in the assay on HTT; 1000 to 10000 nM with Target C; less than 100 nM in the assay with MYB.
For the compound `CC(=O)c1nc(-c2cc3cn(C)nc3c(F)c2O)nc2ccc(N3C[C@@H](C)N[C@@H](C)C3)cc12` [Compound 717, 1-{6-[(3R,5S)-3,5-dimethylpiperazin-1-yl]-2-(7-fluoro-6-hydroxy-2-methylindazol-5-yl)quinazolin-4-yl}ethanone], the AC50 with MYB mRNA (RT-qPCR) was less than 100 nM. Further, the half-inhibitory concentration (IC50) in the assay on MYB mRNA (setting [1]) was less than 100 nM; in the assay on MYB mRNA (setting [2]) it was less than 100 nM; with HTT, 100 to 1000 nM; with Target C it was 100 to 1000 nM; with MYB it was less than 100 nM.
As to `CNC(=O)c1nc(-c2cc3cn(C)nc3c(F)c2O)nc2ccc(N3CCC(N4CCC4)CC3)cc12` [Compound 722, 6-[4-(azetidin-1-yl)piperidin-1-yl]-2-(7-fluoro-6-hydroxy-2-methylindazol-5-yl)-N-methylquinazoline-4-carboxamide], the AC50 with MYB mRNA (RT-qPCR) is less than 100 nM. Further, the half-inhibitory concentration (IC50) in the assay on MYB mRNA (setting [1]) was less than 100 nM; in the assay on MYB mRNA (setting [2]), less than 100 nM; in the assay with HTT, less than 100 nM; with Target C, 100 to 1000 nM; in the assay on MYB it was less than 100 nM.
With `Cc1cc(N2C[C@@H](C)N[C@@H](C)C2)cc2c(Cl)cc(-c3cc4cn(C)nc4c(F)c3O)nc12` [Compound 723, 5-{4-chloro-6-[(3R,5S)-3,5-dimethylpiperazin-1-yl]-8-methylquinolin-2-yl}-7-fluoro-2-methylindazol-6-ol], in the assay with MYB mRNA (RT-qPCR), the AC50 is less than 100 nM. The IC50 in the assay on MYB mRNA (setting [1]), with MYB mRNA (setting [2]), in the assay on HTT, with Target C and with MYB was less than 100 nM each time.
In the case of `CNC(=O)c1nc(-c2cc3cn(C)nc3c(F)c2O)nc2ccc(N3CCNC4(CC4)C3)cc12` [Compound 728, 6-{4,7-diazaspiro[2.5]octan-7-yl}-2-(7-fluoro-6-hydroxy-2-methylindazol-5-yl)-N-methylquinazoline-4-carboxamide], the AC50 in the assay with MYB mRNA (RT-qPCR) was less than 100 nM. For the same compound, the IC50 in the assay on MYB mRNA (setting [1]) was less than 100 nM; in the assay with MYB mRNA (setting [2]) it was less than 100 nM; in the assay with HTT, 100 to 1000 nM; in the assay with Target C, 100 to 1000 nM; with MYB, less than 100 nM.
For the compound `CNC(=O)c1nc(-c2cc3cn(C)nc3c(F)c2O)nc2ccc(N3CC[C@@H](NC)C3)cc12` [Compound 729, 2-(7-fluoro-6-hydroxy-2-methylindazol-5-yl)-N-methyl-6-[(3R)-3-(methylamino)pyrrolidin-1-yl]quinazoline-4-carboxamide], the half-maximal activity concentration (AC50) in the assay on MYB mRNA (RT-qPCR) was less than 100 nM. Moreover, the half-maximal inhibitory concentration (IC50) in the assay with MYB mRNA (setting [1]), in the assay on MYB mRNA (setting [2]), in the assay on HTT, with Target C and with MYB was less than 100 nM each time.
Regarding `C[C@@H]1CN(c2ccc3nc(-c4cc5cn(C)nc5c(F)c4O)nc(-c4nccs4)c3c2)C[C@H](C)N1` [Compound 732, 5-{6-[(3R,5S)-3,5-dimethylpiperazin-1-yl]-4-(1,3-thiazol-2-yl)quinazolin-2-yl}-7-fluoro-2-methylindazol-6-ol], the half-maximal activity concentration (AC50) in the assay with MYB mRNA (RT-qPCR) is greater than 10000 nM. Moreover, the concentration for half-maximal inhibition (IC50) with MYB mRNA (setting [1]), in the assay with MYB mRNA (setting [2]), in the assay on HTT, in the assay with Target C and in the assay on MYB was 1000 to 10000 nM each time.
Turning to `C[C@@H]1CN(c2ccc3nc(-c4cc5cn(C)nc5c(F)c4O)nc(C(=O)NCCO)c3c2)C[C@H](C)N1` [Compound 737, 6-[(3R,5S)-3,5-dimethylpiperazin-1-yl]-2-(7-fluoro-6-hydroxy-2-methylindazol-5-yl)-N-(2-hydroxyethyl)quinazoline-4-carboxamide], in the assay on MYB mRNA (RT-qPCR), the half-maximal activity concentration (AC50) was 100 to 1000 nM. Also, the half-inhibitory concentration (IC50) in the assay on MYB mRNA (setting [1]) lay within 100 to 1000 nM; in the assay on MYB mRNA (setting [2]) it was 100 to 1000 nM; in the assay on HTT it was 1000 to 10000 nM; with Target C, 1000 to 10000 nM; with MYB, 100 to 1000 nM.
In the case of `CNC(=O)c1nc(-c2cc3cn(C)nc3cc2O)nc2ccc(N3CCC(N(C)C)CC3)cc12` [Compound 742, 6-[4-(dimethylamino)piperidin-1-yl]-2-(6-hydroxy-2-methylindazol-5-yl)-N-methylquinazoline-4-carboxamide], the AC50 in the assay with MYB mRNA (RT-qPCR) is 100 to 1000 nM. The IC50 in the assay with MYB mRNA (setting [1]) was 100 to 1000 nM; with MYB mRNA (setting [2]) it was 100 to 1000 nM; in the assay with HTT, 1000 to 10000 nM; with Target C it was greater than 10000 nM; with MYB, 100 to 1000 nM.
In the case of `C[C@@H]1CN(c2ccc3nc(-c4cc5cn(C)nc5c(F)c4O)ncc3c2)C[C@H](C)N1` [Compound 743, 5-{6-[(3R,5S)-3,5-dimethylpiperazin-1-yl]quinazolin-2-yl}-7-fluoro-2-methylindazol-6-ol], in the assay with MYB mRNA (RT-qPCR), the half-maximal activity concentration (AC50) was greater than 10000 nM. For the same compound, the IC50 in the assay with MYB mRNA (setting [1]), with MYB mRNA (setting [2]), in the assay on HTT, in the assay with Target C and in the assay with MYB was 1000 to 10000 nM throughout.
In the case of `C[C@H]1CN(c2ccc3nc(-c4cc5cn(C)nc5c(F)c4O)ncc3c2)C[C@H](C)N1` [Compound 744, 5-{6-[(3S,5S)-3,5-dimethylpiperazin-1-yl]quinazolin-2-yl}-7-fluoro-2-methylindazol-6-ol], the AC50 in the assay with MYB mRNA (RT-qPCR) is less than 100 nM. In addition, the half-maximal inhibitory concentration (IC50) with MYB mRNA (setting [1]), with MYB mRNA (setting [2]), in the assay with HTT, with Target C and with MYB was less than 100 nM throughout.
Turning to `C[C@@H]1CN(c2ccc3nc(-c4cc5cn(C)nc5c(F)c4O)ncc3c2)C[C@@H](C)N1` [Compound 745, 5-{6-[(3R,5R)-3,5-dimethylpiperazin-1-yl]quinazolin-2-yl}-7-fluoro-2-methylindazol-6-ol], in the assay on MYB mRNA (RT-qPCR), the AC50 is less than 100 nM. In addition, the 50% inhibitory concentration (IC50) in the assay with MYB mRNA (setting [1]) is less than 100 nM; in the assay on MYB mRNA (setting [2]) it was less than 100 nM; in the assay with HTT it was 100 to 1000 nM; in the assay with Target C, 100 to 1000 nM; in the assay on MYB, less than 100 nM.
